Each structure is given as a SMILES string. Structures can show the parent of a compound that is named as a salt. Where two headings read alike, the source gives them in different places.

The source of these data is patent US4634709A, “Platelet aggregation inhibitory agents and intermediates therefor” (Research Corporation, priority 1984, dated 1987).

The test system of data set [1] is human blood platelet aggregation, ADP-induced. Briefly: Inhibition of ADP-induced human blood platelet aggregation (aggregometry, platelet-rich plasma). Conditions: for inhibition at 50 µM: 50 μM evaluant, % reduction in maximal aggregation intensity vs control; for inhibition at 100 µM: read-out: % inhibition of aggregation, ADP-induced; for inhibition at 500 µM: 500 μM evaluant. In kind it is cell-based. How it is done:
(§1) Adenosine diphosphate (ADP) used to induce platelet aggregation was employed as the sodium salt. A 10 mM stock solution was prepared fresh before each use in modified Tyrode's buffer and working dilutions were prepared with modified Tyrode's buffer immediately prior to use. The buffer contained NaCl (137.00 mM), KCl (2.70 mM), NaHCO3 (11.90 mM), NaH2 PO4.H2 O (0.36 mM) and glucose (5.60 mM) in redistilled water. Adjustment to pH 7.4 was effected by addition of 1N HCl. A solution of highly purified human α-thrombin (10,624 units/ml) wss stored at -70° C. in 10 μl aliquots. The latter were diluted with modified Tyrode's buffer to a concentration of 10.0 units/ml immediately prior to use.
(§2) Venous blood for the examples set forth below was collected in plastic syringes from healthy male volunteers (aged 21-30 years) who had fasted overnight and had abstained from all medications, alcohol, tobacco and caffeine for a period of at least one week prior to donations. In experiments employing ADP as the aggregation-inducing agent, the blood was transferred into siliconized centrifuge tubes containing 3.2% sodium citrate (blood/citrate ratio 8:1); in thrombin-induced aggregations, 3.8% sodium citrate (blood/citrate ratio 9:1) was used. The cirtrated whole blood was centrifuged at 120×g for 15 minutes at 23° C., yielding platelet-rich plasma (PRP); platelet-poor plasma (PPP) was obtained by centrifugation of citrated whole blood at 1,100×g for […] at 23° C. The platelet count of PRP was determined and adjusted to a final count of 300,000 platelets per mm^3 by dilution with autologous PPP. (Occasionally, blood from a given donor yielded PRP with a count lower than the stipulated figure; however, this was usually greater than 285,000, and never less than 250,000 platelets per mm^3.) The plasma so obtained was transferred in 1.2-ml aliquots to siliconized glass tubes, by means of a siliconized Pasteur pipet. In order to maintain plasma pH in the appropriate range, the air in the tubes was displaced gently (1 minute) with a 5% CO2 -95% air (v/v) mixture and the tubes sealed with Parafilm according to the method of Han et al, Br. J. Haematol. Vol. 26, pages 373-389 (1974). The plasma was maintained at 37° C. in a water bath until used in the aggregation experiments.
Assays of platelet aggregation was performed at least in duplicate, using plasma acquired from different donors, employing a method developed by Quintana et al (Quintana et al, Thromb. Res., Vol. 22, pages 665-680 (1981); Quintana et al, Thromb. Res., Vol. 20, pages 405-415 (1980) (cf. Born, Nature, Vol. 194, pages 927-929 (1962) and Mustard et al, J. Lab. Clin. Med., Vol. 64, pages 548-559 (1964)).
Initially, in each experiment, 0.45-ml aliquots of PRP were placed in siliconized cuvettes and stirred (1,100 rpm) in the aggregometer at 37° C. to ascertain the absence of spontaneous aggregation. Appropriate ADP solutions (50 μl) were subsequently injected using a Hamilton microliter syringe to determine the minimal concentration eliciting maximal biphasic aggregation. This ranged from 2 μM to 8 μM (cf. Quintana et al, Thromb. Res., Vol. 22, pages 665-680 (1981); Quintana et al, Thromb. Res., Vol. 20, pages 405-415 (1980)). In each case, the concentration of ADP so determined was used in eliciting aggregation throughout each specific set of aggregometric evaluations. In all thrombin-induced aggregation experiments the same stimulus was applied; this constituted injection of 50 μl of the solution containing 10.0 units of α-thrombin/ml (affording a final concentration of 1.0 unit of α-thrombin/ml PRP).
0.5 μl of a solution of the evaluant compound in redistilled 95% ethanol was injected into a stirred (1,100 rpm) 0.45-ml aliquot of plasma in a siliconized cuvette in the aggregometer-well (37° C.). After 15 seconds, the cuvette was transferred to an incubator (also at 37° C.) and the contents held at this temperature, without stirring, until 2 minutes post-injection. […]

Data set [2] concerns human blood platelet aggregation, thrombin-induced. Briefly: Inhibition of thrombin-induced human blood platelet aggregation (aggregometry, platelet-rich plasma). In kind it is cell-based. Conditions: for % inhibition of aggregation, thrombin-induced: 50 μM evaluant, human PRP, 1.0 unit α-thrombin/ml PRP. How it is done: as §1
as §2, with “experiments. […]” for “experiments.”
Initially, in each experiment, 0.45-ml aliquots of PRP were placed in siliconized cuvettes and stirred (1,100 rpm) in the aggregometer at 37° C. to ascertain the absence of spontaneous aggregation. […] In each case, the concentration of ADP so determined was used in eliciting aggregation throughout each specific set of aggregometric evaluations. […]

Data set [3] relates to platelet aggregation, ADP-induced. To be noted: cited from earlier work.
For data set [4] the following is noted: literature; cited from earlier work.
Setting [5] is: Platelet, 100 μM evaluant, human PRP.

As a reminder, the inhibition is the change of the read-out against control, counted positive when it falls. `c1ccc2c(c1)CCN(Cc1ccc(CN3CCc4ccccc4C3)cc1)C2` [Example 2, α,α'-Bis(1,2,3,4-tetrahydroisoquinolino)-p-xylene Dihydrobromide] came in with an inhibition at 50 µM in data set [1] (Platelet, human PRP) of 0%. In addition, the “ADP-induced platelet aggregation inhibition, in words” value in data set [1] (Table 1 footnote 5) is “inactive”.
`Oc1ccc2c(c1)CCCN2Cc1ccc(CN2CCCc3cc(O)ccc32)cc1` [Example 5, α,α'-Bis(6-hydroxy-1,2,3,4-tetrahydroquinolino)-p-xylene Dihydrobromide] gave an inhibition at 50 µM in data set [1] (Platelet, human PRP) of 21.5%.
For `Oc1ccc2c(c1)CCCN2CCCCCCCCCCN1CCCc2cc(O)ccc21` [Example 7, 1,10-Bis(6-hydroxy-1,2,3,4-tetrahydroquinolino)decane Dihydriodide], in data set [1] (Platelet, human PRP), 50 µM produced 25.9% inhibition.
Still for that read-out and setting: the result for `CCCCCCCCCCN1CCCc2cc(O)ccc21` [Example 9, 1-Decyl-6-hydroxy-1,2,3,4-tetrahydroquinoline Hydriodide] reads 33%.
`CCCCCCN1CCCc2cc(O)ccc21` [Example 11, 1-Hexyl-6-hydroxy-1,2,3,4-tetrahydroquinoline Hydriodide] displayed an inhibition at 50 µM in data set [1] (Platelet, human PRP) of 37.2%. In addition, the inhibition at 100 µM in data set [1] (setting [5]) stood at 45.9%.
In turn, `CCCCCCCCCCCCCCN1CCCc2cc(O)ccc21` [Example 12, 1-Tetradecyl-6-hydroxy-1,2,3,4-tetrahydroquinoline Hydriodide] registered an inhibition at 50 µM in data set [1] (Platelet, human PRP) of 0%.
Regarding `CCCCN(CCCC)C(=O)c1cccnc1` [Example 13, N,N--Dibutylnicotinamide], the inhibition at 100 µM in data set [1] (setting [5]) stood at 0%.
With `CCCCN(CCCC)C(=O)C1CCCN(Cc2ccc(CN3CCCC(C(=O)N(CCCC)CCCC)C3)cc2)C1` (stereo not drawn) [Example 14, α,α'-Bis[3-(N,N--dibutylcarbamoyl)piperidino]-p-xylene Dihydrobromide], the inhibition at 50 µM in data set [1] (Platelet, human PRP) is 49.7%.
As to `CCCCCCCCCCN(CCCCCCCCCC)C(=O)C1CCCN(Cc2ccc(CN3CCCC(C(=O)N(CCCCCCCCCC)CCCCCCCCCC)C3)cc2)C1` (stereo not drawn) [Example 16, α,α'-Bis[3-(N,N--didecylcarbamoyl)piperidino]-p-xylene Dihydrobromide], the inhibition at 50 µM in data set [1] (Platelet, human PRP) worked out at 0%.
The molecule `CCCCCCCCCCNC(=O)C1CCCN(Cc2ccc(CN3CCCC(C(=O)NCCCCCCCCCC)C3)cc2)C1` (stereo not drawn) [Example 19, α,α'-Bis[3-(N--decylcarbamoyl)piperidino]-p-xylene Dihydrobromide] had an inhibition at 50 µM in data set [1] (Platelet, human PRP) of 0%.
`CCCCCCCCN(C)C(=O)c1cccnc1` [Example 20, N--Methyl-N--octylnicotinamide]: the inhibition at 100 µM in data set [1] (setting [5]) turned out to be 12.1%.
Regarding `CCCCCCCCN(C)C(=O)C1CCCNC1` (stereo not drawn) [Example 21, N--Methyl-N--octylnipecotamide], the inhibition at 100 µM in data set [1] (setting [5]) turned out to be 49.9%.
Same read-out and setting: under `CCCCCCCCN(C)C(=O)C1CCCN(C)C1` (stereo not drawn) [Example 22, 1-Methyl-3-(N--methyl-N--octylcarbamoyl)piperidine Hydriodide] stands 33.1%; under `CCCCN(CCCC)C(=O)C1CCCN(C)C1` (stereo not drawn) [Example 23, 1-Methyl-3-(N,N--dibutylcarbamoyl)piperidine Hydriodide], 11.8%.
As for `CCCCCCCCCCNC(=O)C1CCCN(C)C1` (stereo not drawn) [Example 25, 1-Methyl-3-(N--decylcarbamoyl)piperidine Hydriodide], the inhibition at 100 µM in data set [1] (setting [5]) was 45.6%.
Molecule `CN1CCCC(C(=O)NCCCCCCCCCCNC(=O)C2CCCN(C)C2)C1` (stereo not drawn) [Example 28, 1,10-Bis[N--(1-methylnipecotoyl)amino]decane Dihydriodide] showed an inhibition at 50 µM in data set [1] (Platelet, human PRP) of 30.9%.
In data set [1] (Platelet, human PRP), `CN1CCCC(C(=O)NCCCCCCNC(=O)C2CCCN(C)C2)C1` (stereo not drawn) [Example 31, 1,6-Bis[N--(1-methylnipecotoyl)amino]hexane Dihydriodide] displayed an inhibition at 500 µM of 17%.
`C[N+]1(CCCCCCCCCC[N+]2(C)CCCCC2)CCCCC1` [Example 33, 1,10-Bis(N--methylpiperidinium)decane Diiodide]: the inhibition at 100 µM in data set [1] (Homo sapiens, Platelet) was determined as 0%.
Consider `O=C(C1CCCNC1)N1CCN(C(=O)C2CCCNC2)CC1` (stereo not drawn) [Example 35, N,N'--Bis(nipecotoyl)piperazine Dihydrobromide], for which at 500 µM the inhibition in data set [1] (Platelet, human PRP) was 48.9%.
Consider `CCCCCCCCCCN1CCCC(C(=O)N2CCN(C(=O)C3CCCN(CCCCCCCCCC)C3)CC2)C1` (stereo not drawn) [Example 37, N,N'--Bis(1-decylnipecotoyl)piperazine Dihydriodide], for which the “% inhibition of aggregation, thrombin-induced” value in data set [2] is 88.2%. In data set [1] (Platelet, 10 μM evaluant, human PRP), this molecule returned an inhibition at 10 µM of 48.3%. In data set [1] (Platelet, human PRP), this molecule registered an inhibition at 50 µM of 93.8%.
`CN(CCN(C)C(=O)C1CCCNC1)C(=O)C1CCCNC1` (stereo not drawn) [Example 39, 1,2-Bis(N-nipecotoyl-N-methylamino)ethane dihydrobromide] gave an inhibition at 500 µM in data set [1] (Platelet, human PRP) of 46.3%.
As to `CCCCCCCCCCN1CCCC(C(=O)N(C)CCN(C)C(=O)C2CCCN(CCCCCCCCCC)C2)C1` (stereo not drawn) [Example 40, 1,2-Bis[N--(1-decylnipecotoyl)-N--methylamino]ethane Dihydriodide], the inhibition at 50 µM in data set [1] (Platelet, human PRP) stood at 82.6%.
The molecule `CCCCCCN1CCCC(C(=O)N(C)CCN(C)C(=O)C2CCCN(CCCCCC)C2)C1` (stereo not drawn) [Example 41, 1,2-Bis[N--(1-hexylnipecotoyl)-N--methylamino]ethane Dihydriodide] registered an inhibition at 50 µM in data set [1] (Platelet, human PRP) of 71.6%.
For the molecule `CCCCCCCCCCN1CCCC(C(=O)N(C)CCCCCCN(C)C(=O)C2CCCN(CCCCCCCCCC)C2)C1` (stereo not drawn) [Example 42, 1,6-Bis[N--(1-decylnipecotoyl)-N--methylamino]hexane Dihydriodide], the “% inhibition of aggregation, thrombin-induced” value in data set [2] is reported as 88.3%. Further, at 50 µM the inhibition in data set [1] (Platelet, human PRP) was 85.6%.
On to `CCCCCCCCCCN1CCCC(C(=O)N(CCCC)CCCCCCN(CCCC)C(=O)C2CCCN(CCCCCCCCCC)C2)C1` (stereo not drawn) [Example 43, 1,6-Bis[N--(1-decylnipecotoyl)-N--butylamino]hexane Dihydriodide], for which at 50 µM the inhibition in data set [1] (Platelet, human PRP) was 38.6%.
The same measure, in the same setting: the result for `CCCCCCN1CCCC(C(=O)N(CCCC)CCCCCCN(CCCC)C(=O)C2CCCN(CCCCCC)C2)C1` (stereo not drawn) [Example 44, 1,6-Bis[N--(1-hexylnipecotoyl)-N--butylamino]hexane Dihydriodide] reads 72.4%.
With `CN(C)CCCN1c2ccccc2Sc2ccc(Cl)cc21` [chloropromazine, reference compound], in data set [2] (in words, FIG. 2), the “effectiveness in thrombin-induced aggregation compared with the piperidine derivatives” value is “much less effective”. In addition, the “effectiveness in ADP-induced aggregation compared with the piperidine derivatives” value in data set [1] (in words) was “considerably less effective”.
Turning to `OCCN(CCO)c1nc(N2CCCCC2)c2nc(N(CCO)CCO)nc(N3CCCCC3)c2n1` [dipyridamole], in data set [3] (250 μM, Cucuiani et al), the “inhibition in ADP-induced aggregation” value was 10%.
For the molecule `O=C(O)C1CCCNC1` (stereo not drawn) [nipecotic acid, Piperidine-3-carboxylic acid], in data set [4], the “deleterious / adverse effects” value was “has not been discerned to have deleterious effects”.
With `O=C1C(CC[S+]([O-])c2ccccc2)C(=O)N(c2ccccc2)N1c1ccccc1` (stereo not drawn) [sulfinpyrazone], the “inhibition in ADP-induced aggregation” value in data set [3] (2,470 μM, Packham et al) was 0%.
